Laboratory results as given in patent publication US6667413B2, “Uracil compounds and use thereof” (Sumitomo Chemical Company, Limited, priority 1999, dated 2003).

What was measured:
Type in all cases: in vivo
[1] = system: common chickweed (Stellaria media); assay: Test Example 5: foliar treatment, herbicidal activity index; design: key: 0: no or little difference in the degree of germination or growth between the treated and the untreated tested plants at the time of examination; 10: the test plants died complete or their germination or growth was completely inhibited; settings: foliar spray, 10 g/ha, 9 days after application, index 0 to 10
Method: A cylindrical plastic pot having a diameter of 18.5 cm and a depth of 15 cm was filled with soil and then seeded with common chickweed (Stellaria media). These test plants were grown in a greenhouse for 29 days. After then, each of the compound 1-2 and Compound A was formulated into an emulsifiable concentrate according to Formulation Example 2 and then diluted to the prescribed amount with water containing a spreading agent and the dilution was uniformly sprayed over the foliage of the test plants with a sprayer at a rate of 1000 liters per hectare. After the application, the test plants were grown in the greenhouse for 9 days, and the herbicidal activity was examined.

[2] = system: velvetleaf (Abutilon theophrasti); assay: Test Example 1: foliar treatment, herbicidal activity; settings: foliar spray, 125 g/ha, 7 days after application
Method: (§1) A cylindrical plastic pot having a diameter of 10 cm and a depth of 10 cm was filled with soil and then seeded with Ivyleaf morningglory (Ipomoea hederacea), velvetleaf (Abutilon theophrasti), barnyardgrass (Echinochloa crus-galli) and blackgrass (Alopecurus myosuroides). These test plants were grown in a greenhouse for 9 days. Then, each of compounds 1-1,2-1, 3-1,3-2, 3-11 and 3-12 was formulated into an emulsifiable concentrate according to Formulation Example 2 and then diluted to the prescribed amount with water containing a spreading agent and the dilution was uniformly sprayed over the foliage of the test plants with a sprayer at a rate of 1000 liters per hectare After the application, the test plants were grown in the greenhouse for 7 days, and the herbicidal activity of the applied composition was determined.

[3] = system: barnyardgrass (Echinochloa crus-galli); assay: as above; settings: foliar spray, 125 g/ha, 7 days after application
Method: as §1

[4] = system: blackgrass (Alopecurus myosuroides); assay: as above; settings: foliar spray, 125 g/ha, 7 days after application
Method: as §1

[5] = system: Ivyleaf morningglory (Ipomoea hederacea); assay: as above; settings: foliar spray, 125 g/ha, 7 days after application
Method: as §1

[6] = system: velvetleaf (Abutilon theophrasti); assay: Test Example 2: soil surface treatment, herbicidal activity; settings: sprayed over the surface of the soil, 500 g/ha, 7 days after application
Text: (§2) A cylindrical plastic pot having a diameter of 10 cm and a depth of 10 cm was filled with soil and then seeded with Ivyleaf morningglory (Ipomoea hederacea), velvetleaf (Abutilon theophrasti) and barnyardgrass (Echinochloa crus-galli). Then, each of the compounds 1-1,2-1 and 3-1 was formulated into an emulsifiable concentrate according to Formulation Example 2 and then diluted to the prescribed amount with water, and the dilution was uniformly sprayed over the surface of the soil with a sprayer at a rate of 1000 liters per hectare. After the application, the test plants were grown in the greenhouse for 7 days, and the herbicidal activity of the applied composition was examined.

[7] = system: barnyardgrass (Echinochloa crus-galli); assay: as above; settings: sprayed over the surface of the soil, 500 g/ha, 7 days after application
Text: as §2

[8] = system: Ivyleaf morningglory (Ipomoea hederacea); assay: as above; settings: sprayed over the surface of the soil, 500 g/ha, 7 days after application
Text: as §2

[9] = system: velvetleaf (Abutilon theophrasti); assay: Test Example 4: soil surface treatment, herbicidal activity; settings: sprayed over the surface of the soil, 2000 g/ha, 7 days after application
Text: as §2, with “theophrasti),” for “theophrasti) and”, “crus-galli) and blackgrass (Alopecurus myosuroides).” for “crus-galli).”, “3-2,3-11, 3-12, 3-16, 3-20” for “1-1,2-1”, “3-198” for “3-1”

[10] = system: barnyardgrass (Echinochloa crus-galli); assay: as above; settings: sprayed over the surface of the soil, 2000 g/ha, 7 days after application
Text: as §2, with “theophrasti),” for “theophrasti) and”, “crus-galli) and blackgrass (Alopecurus myosuroides).” for “crus-galli).”, “3-2,3-11, 3-12, 3-16, 3-20” for “1-1,2-1”, “3-198” for “3-1”

[11] = system: blackgrass (Alopecurus myosuroides); assay: as above; settings: sprayed over the surface of the soil, 2000 g/ha, 7 days after application
Text: as §2, with “theophrasti),” for “theophrasti) and”, “crus-galli) and blackgrass (Alopecurus myosuroides).” for “crus-galli).”, “3-2,3-11, 3-12, 3-16, 3-20” for “1-1,2-1”, “3-198” for “3-1”

[12] = system: Ivyleaf morningglory (Ipomoea hederacea); assay: as above; settings: sprayed over the surface of the soil, 2000 g/ha, 7 days after application
Text: as §2, with “theophrasti),” for “theophrasti) and”, “crus-galli) and blackgrass (Alopecurus myosuroides).” for “crus-galli).”, “3-2,3-11, 3-12, 3-16, 3-20” for “1-1,2-1”, “3-198” for “3-1”

[13] = system: velvetleaf (Abutilon theophrasti); assay: Test Example 3: foliar treatment, herbicidal activity; settings: foliar spray, 500 g/ha, 7 days after application
Method: (§3) A cylindrical plastic pot having a diameter of 10 cm and a depth of 10 cm was filled with soil and then seeded with Ivyleaf morningglory (Ipomoea hederacea), velvetleaf (Abutilon theophrasti) and barnyardgrass (Echinochloa crus-galli). These test plants were grown in a greenhouse for 9 days. After then, each of the compounds 3-16, 3-20 and 3-198 was formulated into an emulsifiable concentrate according to Formulation Example 2 and then diluted to the prescribed amount with water containing a spreading agent and the dilution was uniformly sprayed over the foliage of the test plants with a sprayer at a rate of 1000 liters per hectare. After the application, the test plants were grown in the greenhouse for 7 days, and the herbicidal activity was examined.

[14] = system: barnyardgrass (Echinochloa crus-galli); assay: as above; settings: foliar spray, 500 g/ha, 7 days after application
Method: as §3

[15] = system: Ivyleaf morningglory (Ipomoea hederacea); assay: as above; settings: foliar spray, 500 g/ha, 7 days after application
Method: as §3

SMILES	Herbicidal activity [1]	emergence of velvetleaf [9]	emergence of barnyardgrass [10]	emergence of blackgrass [11]	emergence of Ivyleaf morningglory [12]	growth of velvetleaf [13]	growth of barnyardgrass [14]	growth of Ivyleaf morningglory [15]	further results
CCOC(=O)C(C)Oc1ccc(Oc2cc(-n3c(=O)cc(C(F)(F)F)n(C)c3=O)c(F)cc2Cl)cc1 (stereo not drawn) [Compound 1-2, ethyl 2-[4-{2-chloro-4-fluoro-5-[3-methyl-2,6-dioxo-4-(trifluoromethyl)-1,2,3,6-tetrahydropyrimidin-1-yl]phenoxy}phenoxy]propionate]	10	–	–	–	–	–	–	–	–
COC(=O)C(C)Oc1ccccc1Oc1cc(-n2c(=O)cc(C(F)(F)F)n(C)c2=O)c(F)cc1Cl (stereo not drawn) [Compound 3-1, methyl 2-[2-{2-chloro-4-fluoro-5-[3-methyl-2,6-dioxo-4-(trifluoromethyl)-1,2,3,6-tetrahydropyrimidin-1-yl]phenoxy}phenoxy]propionate]	–	–	–	–	–	–	–	–	growth of velvetleaf [2]: completely controlled; growth of barnyardgrass [3]: completely controlled; growth of blackgrass [4]: completely controlled; growth of Ivyleaf morningglory [5]: completely controlled; emergence of velvetleaf [6]: completely controlled; emergence of barnyardgrass [7]: completely controlled; emergence of Ivyleaf morningglory [8]: completely controlled
Cn1c(C(F)(F)F)cc(=O)n(-c2cc(Oc3ccccc3OCC(=O)OC(C)(C)C)c(Cl)cc2F)c1=O [Compound 3-16]	–	completely controlled	completely controlled	completely controlled	completely controlled	completely controlled	completely controlled	completely controlled	–
C=CCOC(=O)COc1ccccc1Oc1cc(-n2c(=O)cc(C(F)(F)F)n(C)c2=O)c(F)cc1Cl [Compound 3-20, allyl [2-{2-chloro-4-fluoro-5-[3-methyl-2,6-dioxo-4-(trifluoromethyl)-1,2,3,6-tetrahydropyrimidin-1-yl]phenoxy}phenoxy]acetate]	–	completely controlled	completely controlled	completely controlled	completely controlled	completely controlled	completely controlled	completely controlled	–
CC(C)COC(=O)COc1ccccc1Oc1cc(-n2c(=O)cc(C(F)(F)F)n(C)c2=O)c(F)cc1Cl [Compound 3-198, isobutyl [2-{2-chloro-4-fluoro-5-[3-methyl-2,6-dioxo-4-(trifluoromethyl)-1,2,3,6-tetrahydropyrimidin-1-yl]phenoxy}phenoxy]acetate]	–	completely controlled	completely controlled	completely controlled	completely controlled	completely controlled	completely controlled	completely controlled	–
CCOC(=O)C(C)Oc1ccc(Oc2cc(-n3c(=O)cc(C(F)(F)F)n(N)c3=O)c(F)cc2Cl)cc1 (stereo not drawn) [Compound A, reference compound]	5	–	–	–	–	–	–	–	–
